# Where two headings read alike, the source gives them in different places.
# What was measured:
# [1] = Spectrophotometric titration; format: binding; conditions: spectrophotometrically measured, I = 2.0 M (Na+/H+)ClO4, T = 25 ± 1 °C, ±3σ
# Excerpt: Changes in the optical absorption characteristics of Nd^3+ were monitored using a Cary 6000i UV/Vis–NIR Spectrometer (Agilent) using 1 cm semimicro quartz cuvettes (Starna) in double-beam mode, where the ^4I9/2 → ^4G5/2, ^2G7/2 transitions[34] were monitored between 560 and 605 nm with a 0.075 nm interval and 1.0 nm spectral bandwidth. Changes in the optical absorption characteristics of ^243Am^3+ and ^248Cm^3+ were monitored using a Flame-S-VIS–NIR-ES spectrometer coupled to a DH-2000-BAL dual-mode light source (Ocean Optics) with a single 1 cm semimicro quartz cuvette (Starna). […] The complexation of Am^3+ with the ligands was monitored in the 495–525 nm spectral region, looking at the ^7F0′ → ^5L6′ transition[23],[35]. For Cm^3+, ligand complexation was monitored in the 365–410 nm spectral region, looking at the ^8S7/2 → ^2Ji (i = {15}, {13,9}, {11,17}) manifold transitions[24],[25],[36]. Changes in aqueous p[H^+] were monitored throughout each titration step using a Gran-calibrated Orion Ross Semi-micro glass electrode. […] Finally, the spectroscopic data was analyzed using the HypSpec software package[33],[37]. […]
# To further validate the competitive solvent extraction methodology the complexation of Am^3+ with H4octapa and Cm^3+ with H4pypa-peg was studied spectrophotometrically. […] The presence of both ligands induced new red-shifted absorption signatures in each monitored titration. […]
# [2] = cited from earlier work
Compound,"logβ101 (ML), Cm3+ [1]",pKa H2L2- ([2]; I = 0.15 M NaCl at 25 °C),pKa H3L- ([2]; I = 0.15 M NaCl at 25 °C),pKa H4L(aq) ([2]; I = 0.15 M NaCl at 25 °C),pKa H5L+ ([2]; I = 0.15 M NaCl at 25 °C),pKa HL3- ([2]; I = 0.15 M NaCl at 25 °C),pKa H2L2- ([2]; I = 0.16 M NaCl at 25 °C),pKa H3L- ([2]; I = 0.16 M NaCl at 25 °C),pKa H4L(aq) ([2]; I = 0.16 M NaCl at 25 °C),pKa H5L+ ([2]; I = 0.16 M NaCl at 25 °C),pKa H6L2+ ([2]; I = 0.16 M NaCl at 25 °C),pKa H7L3+ ([2]; I = 0.16 M NaCl at 25 °C),pKa HL3- ([2]; I = 0.16 M NaCl at 25 °C)
"O=C(O)CN(Cc1cc(-c2cn(CCOCCOCCO)nn2)cc(CN(CC(=O)O)Cc2cccc(C(=O)O)n2)n1)Cc1cccc(C(=O)O)n1 [H4pypa-peg, 6,6'-((((4-(1-(2-(2-(2-hydroxyethoxy)ethoxy)ethyl)-1H-1,2,3-triazol-4-yl)pyridine-2,6-diyl)bis–(methylene))bis–((carboxymethyl)azanediyl))bis–(methylene)) dipicolinic acid]",20.37 (2),–,–,–,–,–,–,–,–,–,–,–,–
"O=C(O)CN(CCN(CC(=O)O)Cc1cccc(C(=O)O)n1)Cc1cccc(C(=O)O)n1 [H4octapa, 6,6′-((ethane-1,2-diylbis–((carboxymethyl)azanediyl))bis–(methylene))dipicolinic acid]",–,5.40 (1),3.65 (1),2.97 (1),1.66 (1),8.52 (1),5.43 (2),3.75 (1),3.08 (1),2.21 (2),1.61 (2),0.12 (4),8.58 (1)
